# Source: paper PMC12405493, “Selective ubiquitination of drug-like small molecules by the ubiquitin ligase HUWE1” (Nature Communications, 2025)
# Tests used:
# HEK293T WT cells = assay: Click chemistry-based detection of compound ubiquitination in cell lysates; design: species or system human; conditions: for Compound ubiquitination in cells (click chemistry, cell lysates): HEK293T WT, 10 μM or 20 μM
# Experimental: Cell lysate-based applications: HEK293T WT or HUWE1 KO cells at ~70% confluency on a 10-cm dish were treated with 10 μM or 20 μM BI8626 derivative 6, 7 or 8 for the indicated times. As indicated in the results section, derivative 8 yielded slightly stronger signal than 6 and was thus used for analyses of the prerequisites of cellular small-molecule ubiquitination. Treatment with 1 μM TAK243 (MedChemExpress) or 10 μM MLN4924 (Sigma-Aldrich) was performed for 1 h, prior to derivative 8 administration. Cells were collected with ice-cold 1 x DPBS, centrifugated, and the cell pellet was resuspended in 300 μL sodium phosphate buffer (pH 7.0) (Jena Bioscience), supplemented with 1% (v/v) NP-40, 3 M urea, 10 mM NEM, 50 μM PR-619, 10 μM MG-132 and protease-phosphatase inhibitor cocktail. After 20 min rotating at 4 °C, the lysate was cleared by centrifugation, the total protein concentration determined with a Pierce BCA Protein Assay Kit, the sample diluted to ~7.5 μg μL^−1 and supplemented with 5 μM IRDye 800CW Azide (LI-COR), a mixture of 2 mM CuSO4/10 mM THPTA (Jena Bioscience) and 100 mM sodium ascorbate. The click chemistry reaction was performed in the dark at 37 °C, shaking at 300 rpm. After 1 h, the reaction was quenched with 40 mM EDTA, diluted 1.2-fold with 10 mM Tris (pH 7.5), 150 mM NaCl and 0.5 mM EDTA. 25 μL Ubiquitin-Trap Magnetic Agarose beads (Proteintech) were added, the mixture was rotated at 4 °C for 80 min, the resin washed 3 x with 10 mM Tris (pH 7.5), 150 mM NaCl, 0.05% (v/v) NP-40, 0.5 mM EDTA and 3 M urea, following protein elution in 40 μL of 1.5 x SDS-loading dye at 95 °C for 5 min. 10 μL were subjected to SDS-PAGE and analyzed by fluorescence scanning (Odyssey CLx; LI-COR) and Coomassie staining.
# HUWE1^HECT [1] = biological target: T1, HUWE1^HECT (Homo sapiens, UniProt Q7Z6Z7); assay: Analytical SEC / intact protein MS of HUWE1^HECT-driven compound ubiquitination; type: biochemical; conditions: 20 μM compound; + ATP; WT Ub
# T1 construct: the isolated HECT domain of HUWE1 (HUWE1^HECT); made in house
# T1 sequence (Q7Z6Z7 3993-4374): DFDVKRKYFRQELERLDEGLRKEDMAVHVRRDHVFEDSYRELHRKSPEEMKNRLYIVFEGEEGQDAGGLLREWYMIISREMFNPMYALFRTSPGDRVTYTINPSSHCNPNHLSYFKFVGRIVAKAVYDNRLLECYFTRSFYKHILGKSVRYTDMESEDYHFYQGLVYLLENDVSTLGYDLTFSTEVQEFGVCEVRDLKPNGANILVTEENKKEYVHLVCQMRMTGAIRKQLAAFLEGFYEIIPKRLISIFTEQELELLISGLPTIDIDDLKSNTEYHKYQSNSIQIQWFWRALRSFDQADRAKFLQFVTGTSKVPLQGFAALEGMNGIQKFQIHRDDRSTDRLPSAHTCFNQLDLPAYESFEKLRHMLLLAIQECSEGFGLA
# Experimental: HUWE1^HECT multi-turnover ubiquitination reactions were performed with 500 nM UBA1, 5 μM UBE2L3, 5 μM HUWE1^HECT and 100 μM Ub in 20 mM HEPES (pH 7.5), 100 mM NaCl and 0.5 mM TCEP in the presence of 1 mM ATP and 3 mM MgCl2. After 15 min incubation at 30 °C, the mixture was injected into a Superdex 75 Increase 3.2/300 column (Cytiva), equilibrated in 25 mM HEPES (pH 7.5), 100 mM NaCl, and 0.5 mM TCEP at 4 °C. Chromatograms were analyzed and peaks integrated with Unicorn v.7.9.02440 (Cytiva). Data were plotted with Prism v.9.3.1 (GraphPad).
# Intact protein LC/MS: protein molecular weights (MWs) were determined by LC/MS on a nanoflow chromatography system (Dionex U3000 nanoRSLC), hyphenated to a hybrid quadrupole/orbitrap mass spectrometer (Q Exactive HF) with a NanoFlex ion source and controlled by Xcalibur v.2.4 (all Thermo Fisher Scientific). Proteins were dissolved in 2% (v/v) acetonitrile (ACN), 0.1% (v/v) formic acid (FA) to a concentration of 100 fmol μL^−1. For each analysis, 500 fmol were enriched on a pre-column (0.15 ×20 mm, Reprosil-Pur120 C18-AQ 5 μm; Dr. Maisch GmbH) and separated on an analytical RP-C18 column (0.075 mm×200 mm, Reprosil-Pur 120 C18-AQ; 1.9 μm, Dr. Maisch GmbH), using a 23-min linear gradient of 10–80% (v/v) ACN/0.1% (v/v) FA at 300 nl min^−1. MS data were acquired in full MS mode across the 500–1800 m/z-range at a resolution setting of 120,000 FWHM, an AGC target of 1*10e6 and a maximum fill time of 200 ms. Charge state deconvolution and MW representation were performed in Freestyle v.1.9 (Thermo Fisher Scientific), using default settings for high-resolution data.
# HUWE1^FL [2] = biological target: T2, HUWE1^FL (Homo sapiens, UniProt Q7Z6Z7); assay: HUWE1^FL multi-turnover ubiquitination reactions without protein substrate (autoubiquitination, free Ub chains); type: biochemical; conditions: for Inhibition by derivatives modified at the piperazine-linked benzyl moiety: Supplementary Fig. 18c, d
# T2 construct: made in house; host or cells: HEK293T (transient transfection, anti-Flag purification, SEC)
# T2 sequence (Q7Z6Z7 whole entry): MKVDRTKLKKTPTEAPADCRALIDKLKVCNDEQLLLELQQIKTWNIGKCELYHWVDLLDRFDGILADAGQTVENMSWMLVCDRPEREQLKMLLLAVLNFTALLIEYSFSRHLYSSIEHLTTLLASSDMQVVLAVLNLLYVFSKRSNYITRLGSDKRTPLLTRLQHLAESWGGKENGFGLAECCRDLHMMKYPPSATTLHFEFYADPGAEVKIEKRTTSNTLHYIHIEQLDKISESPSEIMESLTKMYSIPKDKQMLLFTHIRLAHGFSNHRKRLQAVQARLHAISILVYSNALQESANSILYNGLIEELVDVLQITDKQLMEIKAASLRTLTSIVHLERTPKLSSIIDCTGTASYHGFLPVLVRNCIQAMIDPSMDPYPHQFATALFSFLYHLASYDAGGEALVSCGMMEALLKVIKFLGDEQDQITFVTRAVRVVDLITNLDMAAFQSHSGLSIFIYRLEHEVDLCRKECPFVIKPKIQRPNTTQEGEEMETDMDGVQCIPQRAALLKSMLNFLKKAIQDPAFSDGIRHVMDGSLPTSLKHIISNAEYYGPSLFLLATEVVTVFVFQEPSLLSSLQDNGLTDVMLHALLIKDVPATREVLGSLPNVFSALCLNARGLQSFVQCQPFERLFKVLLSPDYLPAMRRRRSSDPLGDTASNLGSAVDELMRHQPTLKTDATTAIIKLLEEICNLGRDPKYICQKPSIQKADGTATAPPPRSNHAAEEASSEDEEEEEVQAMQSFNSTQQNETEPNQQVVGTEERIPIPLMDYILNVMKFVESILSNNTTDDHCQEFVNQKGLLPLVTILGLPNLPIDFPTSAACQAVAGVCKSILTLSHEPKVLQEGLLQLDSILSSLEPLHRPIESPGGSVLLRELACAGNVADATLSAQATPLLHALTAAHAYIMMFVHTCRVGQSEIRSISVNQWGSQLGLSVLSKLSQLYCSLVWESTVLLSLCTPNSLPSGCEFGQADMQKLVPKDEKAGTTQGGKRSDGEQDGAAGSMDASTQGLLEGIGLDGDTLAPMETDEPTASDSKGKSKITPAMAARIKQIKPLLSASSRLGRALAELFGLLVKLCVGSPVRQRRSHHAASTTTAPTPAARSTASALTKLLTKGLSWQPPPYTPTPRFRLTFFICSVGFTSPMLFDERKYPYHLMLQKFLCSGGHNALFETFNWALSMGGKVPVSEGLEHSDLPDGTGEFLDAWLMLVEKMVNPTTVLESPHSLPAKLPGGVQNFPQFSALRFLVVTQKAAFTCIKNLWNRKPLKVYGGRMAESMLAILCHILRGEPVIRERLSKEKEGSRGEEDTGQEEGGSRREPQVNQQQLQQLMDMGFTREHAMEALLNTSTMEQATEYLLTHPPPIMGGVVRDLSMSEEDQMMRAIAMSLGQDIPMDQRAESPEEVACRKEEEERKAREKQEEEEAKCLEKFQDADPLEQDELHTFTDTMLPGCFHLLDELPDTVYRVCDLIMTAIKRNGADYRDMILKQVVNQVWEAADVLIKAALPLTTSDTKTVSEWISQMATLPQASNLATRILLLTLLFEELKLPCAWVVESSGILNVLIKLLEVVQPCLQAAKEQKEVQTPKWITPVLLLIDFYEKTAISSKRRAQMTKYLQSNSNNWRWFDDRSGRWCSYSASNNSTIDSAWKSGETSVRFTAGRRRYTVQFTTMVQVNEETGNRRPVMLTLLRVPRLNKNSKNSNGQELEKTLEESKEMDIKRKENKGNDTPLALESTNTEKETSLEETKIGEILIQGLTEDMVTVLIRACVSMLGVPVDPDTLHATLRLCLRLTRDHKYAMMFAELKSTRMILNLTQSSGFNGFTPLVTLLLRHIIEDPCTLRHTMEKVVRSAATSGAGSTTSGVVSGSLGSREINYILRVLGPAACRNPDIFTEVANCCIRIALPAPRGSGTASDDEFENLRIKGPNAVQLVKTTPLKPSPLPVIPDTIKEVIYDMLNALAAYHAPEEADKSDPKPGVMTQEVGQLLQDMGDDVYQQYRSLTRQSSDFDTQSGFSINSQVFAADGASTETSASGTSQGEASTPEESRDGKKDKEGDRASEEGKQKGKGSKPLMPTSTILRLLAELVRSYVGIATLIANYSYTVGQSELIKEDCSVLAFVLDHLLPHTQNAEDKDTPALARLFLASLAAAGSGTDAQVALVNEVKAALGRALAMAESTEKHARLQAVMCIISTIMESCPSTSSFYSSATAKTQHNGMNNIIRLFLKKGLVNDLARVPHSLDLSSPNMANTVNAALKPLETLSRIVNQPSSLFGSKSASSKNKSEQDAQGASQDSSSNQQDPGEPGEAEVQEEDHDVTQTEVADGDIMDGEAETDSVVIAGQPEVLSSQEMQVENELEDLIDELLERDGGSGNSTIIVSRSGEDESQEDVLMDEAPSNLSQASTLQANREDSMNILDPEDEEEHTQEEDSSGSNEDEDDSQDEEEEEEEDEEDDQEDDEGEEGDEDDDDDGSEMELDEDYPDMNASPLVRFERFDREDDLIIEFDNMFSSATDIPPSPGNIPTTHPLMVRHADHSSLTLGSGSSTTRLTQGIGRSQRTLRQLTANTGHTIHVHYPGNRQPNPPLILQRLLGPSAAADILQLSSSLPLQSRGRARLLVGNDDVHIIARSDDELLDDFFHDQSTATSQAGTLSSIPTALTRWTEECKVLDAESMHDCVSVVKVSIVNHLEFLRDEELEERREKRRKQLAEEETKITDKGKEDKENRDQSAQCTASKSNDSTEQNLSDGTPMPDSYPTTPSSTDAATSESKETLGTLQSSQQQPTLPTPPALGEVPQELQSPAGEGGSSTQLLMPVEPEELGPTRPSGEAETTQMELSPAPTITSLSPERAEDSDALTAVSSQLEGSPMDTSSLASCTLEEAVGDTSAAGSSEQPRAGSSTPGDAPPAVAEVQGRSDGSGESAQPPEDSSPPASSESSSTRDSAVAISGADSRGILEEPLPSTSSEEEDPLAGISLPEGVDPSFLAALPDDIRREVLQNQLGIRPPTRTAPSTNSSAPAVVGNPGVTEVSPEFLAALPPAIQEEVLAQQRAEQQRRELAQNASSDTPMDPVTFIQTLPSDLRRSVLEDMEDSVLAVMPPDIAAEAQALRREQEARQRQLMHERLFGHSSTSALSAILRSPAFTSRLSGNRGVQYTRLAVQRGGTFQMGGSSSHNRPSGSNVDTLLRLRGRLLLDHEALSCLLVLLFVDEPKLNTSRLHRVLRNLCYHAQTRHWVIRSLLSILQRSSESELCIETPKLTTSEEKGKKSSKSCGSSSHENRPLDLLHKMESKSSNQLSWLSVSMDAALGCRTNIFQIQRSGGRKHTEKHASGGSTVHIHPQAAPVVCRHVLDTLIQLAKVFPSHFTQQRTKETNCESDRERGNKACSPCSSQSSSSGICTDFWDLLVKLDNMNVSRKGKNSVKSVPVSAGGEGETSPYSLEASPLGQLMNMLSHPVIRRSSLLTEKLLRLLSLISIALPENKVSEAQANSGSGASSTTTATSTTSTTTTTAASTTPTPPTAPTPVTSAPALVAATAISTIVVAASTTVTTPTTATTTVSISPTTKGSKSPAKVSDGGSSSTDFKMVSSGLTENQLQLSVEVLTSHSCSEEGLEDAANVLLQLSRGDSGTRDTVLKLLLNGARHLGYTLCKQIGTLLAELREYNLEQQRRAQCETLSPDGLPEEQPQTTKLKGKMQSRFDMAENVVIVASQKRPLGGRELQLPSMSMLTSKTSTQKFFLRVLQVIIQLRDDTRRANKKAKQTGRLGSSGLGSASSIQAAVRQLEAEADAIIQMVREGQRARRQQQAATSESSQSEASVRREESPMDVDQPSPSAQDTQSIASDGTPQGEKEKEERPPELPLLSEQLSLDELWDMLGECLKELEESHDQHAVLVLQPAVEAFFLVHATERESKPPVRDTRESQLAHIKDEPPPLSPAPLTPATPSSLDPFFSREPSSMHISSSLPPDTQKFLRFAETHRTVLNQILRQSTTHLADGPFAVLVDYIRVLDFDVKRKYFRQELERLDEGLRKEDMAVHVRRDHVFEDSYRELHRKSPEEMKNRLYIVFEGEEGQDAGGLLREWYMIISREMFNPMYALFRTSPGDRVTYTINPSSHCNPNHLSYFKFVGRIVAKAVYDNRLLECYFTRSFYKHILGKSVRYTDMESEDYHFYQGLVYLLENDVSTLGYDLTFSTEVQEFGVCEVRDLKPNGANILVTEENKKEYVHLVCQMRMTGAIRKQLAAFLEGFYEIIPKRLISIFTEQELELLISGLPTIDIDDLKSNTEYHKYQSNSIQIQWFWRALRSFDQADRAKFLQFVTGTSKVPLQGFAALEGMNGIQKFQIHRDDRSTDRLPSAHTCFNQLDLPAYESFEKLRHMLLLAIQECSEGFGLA
# Experimental: (§1) HUWE1^HECT multi-turnover ubiquitination reactions were performed for 30 minutes (unless stated otherwise) with 200 nM UBA1, 5 μM UBE2L3 or UBE2D3 (as specified), 1 μM HUWE1^HECT and 30 μM Ub in 25 mM HEPES (pH 7.5), 100 mM NaCl, 3 mM MgCl2, and 0.5 mM TCEP. HUWE1^FL multi-turnover ubiquitination reactions included 50 nM UBA1, 2.5 μM UBE2L3, 0.05 μM HUWE1^FL, 0.5 μM MCL1 (or 0.5 μM H2B or 1 μM FOXP3) and 20 μM Ub in 20 mM HEPES (pH 7.5), 100 mM NaCl, 3 mM MgCl2, and 0.5 mM TCEP. All multi-turnover reactions were started by the addition of 1 mM ATP, incubated at 30 °C, quenched with SDS-loading dye. If not stated otherwise, HUWE1^FLautoubiquitination reactions were incubated for 20 minutes. Substrate ubiquitination reactions with MCL1 or H2B were incubated for 10 and 20 min, respectively; those with FOXP3 for 30 min. Those reactions that were monitored by fluorescence contained a fluorescent Ub tracer (IRDye 800CW maleimide; LI-COR)[55] and were monitored using an Odyssey CLx scanner (LI-COR), followed by Coomassie staining. In the fluorescence images, only those marker bands are labeled (in kDa) that are visible by fluorescence; all marker bands are labeled in the Coomassie-stained images. Statistical analyses were performed with Prism 9 v.9.3.1 (GraphPad).
# HUWE1^HECT [3] = biological target: T3, HUWE1^HECT (Homo sapiens, UniProt Q7Z6Z7); assay: HUWE1^HECT multi-turnover ubiquitination reactions (fluorescent Ub tracer, SDS-PAGE); type: biochemical; conditions: 20 μM compound
# T3 construct: the isolated HECT domain of HUWE1 (HUWE1^HECT); made in house
# T3 sequence (Q7Z6Z7 4038-4374 limits assumed): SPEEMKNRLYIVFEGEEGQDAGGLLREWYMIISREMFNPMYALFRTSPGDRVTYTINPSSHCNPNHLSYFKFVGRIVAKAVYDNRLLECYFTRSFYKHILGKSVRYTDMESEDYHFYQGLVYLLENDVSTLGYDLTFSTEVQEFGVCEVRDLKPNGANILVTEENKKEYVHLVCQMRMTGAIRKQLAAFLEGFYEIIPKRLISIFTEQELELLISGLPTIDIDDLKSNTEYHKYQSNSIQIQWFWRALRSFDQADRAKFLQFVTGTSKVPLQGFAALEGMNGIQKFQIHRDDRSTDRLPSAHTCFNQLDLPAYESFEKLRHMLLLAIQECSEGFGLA
# Experimental: as §1
# HUWE1^FL [4] = biological target: T2, HUWE1^FL; assay: Click chemistry-based detection of compound ubiquitination by HUWE1^FL in vitro; type: biochemical
# Experimental: In vitro applications: Multi-turnover ubiquitination reactions were performed with 50 nM UBA1, 2.5 μM UBE2L3, 50 nM HUWE1^FL and 20 μM Ub in 20 mM HEPES (pH 7.5), 100 mM NaCl, 0.5 mM TCEP, and 20 μM derivative 6 or 7 ± 0.5 μM MCL1 at 30 °C for 10 min. The reactions were started by addition of 1 mM ATP/3 mM MgCl2 and quenched with 3 M urea. Click-chemistry labeling was performed by incubation of the samples with 20 μM IRDye 800CW Azide Infrared Dye (LI-COR), 5 mM CuSO4, 10 mM THPTA and 50 mM sodium ascorbate for 60 min at 37 °C in the dark, following by quenching with 40 mM EDTA. Following SDS-PAGE, the gels were fixed in 10% acetic acid and 30% ethanol for 2 ×15 min and washed in water overnight.
# HEK293T HUWE1 KO cells = assay: Click chemistry-based detection of compound ubiquitination in HUWE1 knock-out cells (± HUWE1 overexpression); type: cell-based, human
# Experimental: The protocol for CRISPR/Cas9-mediated HUWE1-knockout in HEK293T cells was previously described. In short, two sgRNAs were cloned separately into pX330-U6-Chimeric_BB-CBh-hSpCas9 (a gift from Feng Zhang; http://n2t.net/addgene:42230; RRID:Addgene_42230)[68] and pSpCas9(BB)−2A-GFP (PX458) (a gift from Feng Zhang; http://n2t.net/addgene:48138; RRID:Addgene_48138)[69]. Transfections were performed with Lipofectamine LTX (Thermo Fisher Scientific), single cells FACS-seeded into 96-well plates, and clones derived from single cells screened for HUWE1 deficiency by sequencing and immunoblotting.
# Transient transfections of HA-tagged HUWE1^FL WT and C4341S (Fig. 5g) were performed in antibiotic-free and FBS-free media using Lipofectamine 3000 (Thermo Fisher Scientific). 6 h post transfection the media was exchanged to media supplemented with antibiotics and FBS. 24 h post transfection cells were treated with 10 μM or 20 μM BI8626 derivative 8 for 1 h and then collected.
# Cell lysate-based applications: HEK293T WT or HUWE1 KO cells at ~70% confluency on a 10-cm dish were treated with 10 μM or 20 μM BI8626 derivative 6, 7 or 8 for the indicated times. As indicated in the results section, derivative 8 yielded slightly stronger signal than 6 and was thus used for analyses of the prerequisites of cellular small-molecule ubiquitination. Treatment with 1 μM TAK243 (MedChemExpress) or 10 μM MLN4924 (Sigma-Aldrich) was performed for 1 h, prior to derivative 8 administration. […] After 20 min rotating at 4 °C, the lysate was cleared by centrifugation, the total protein concentration determined with a Pierce BCA Protein Assay Kit, the sample diluted to ~7.5 μg μL^−1 and supplemented with 5 μM IRDye 800CW Azide (LI-COR), a mixture of 2 mM CuSO4/10 mM THPTA (Jena Bioscience) and 100 mM sodium ascorbate. […] 10 μL were subjected to SDS-PAGE and analyzed by fluorescence scanning (Odyssey CLx; LI-COR) and Coomassie staining.
structure (smiles),measurement,setting,value
NS(=O)(=O)OC[C@@H]1C[C@@H](n2ccc3c(N[C@H]4CCc5ccccc54)ncnc32)C[C@@H]1O [MLN4924],Effect on cell-based ubiquitination of derivative 8,HEK293T WT cells; 10 μM MLN4924 for 1 h prior to derivative 8,does not markedly affect derivative 8 ubiquitination
NS(=O)(=O)OC[C@H]1C[C@@H](Nc2ccnc3cc(-c4cccc(SC(F)(F)F)c4)nn23)[C@H](O)[C@@H]1O [TAK243],Effect on cell-based ubiquitination of derivative 8,HEK293T WT cells; 1 μM TAK243 for 1 h prior to derivative 8,markedly reduced
"NCc1ccc(CNc2ncnc3c(N4CCN(Cc5ccccc5)CC4)ncnc23)cc1 [derivative 1, N-(4-(aminomethyl)benzyl)−8-(4-benzylpiperazin-1-yl)pyrimido[5,4-d]pyrimidin-4-amine]","Compound ubiquitination by HUWE1^HECT (SEC, intact protein MS)",HUWE1^HECT [1],efficiently ubiquitinated
same,Inhibition of HUWE1^FL by BI8626 derivatives,"HUWE1^FL [2]; 20 μM, without protein substrate and with MCL1 (Fig. 4c, d)",also inhibited
same,HUWE1^HECT inhibition (autoubiquitination) by BI8626 derivatives,HUWE1^HECT [3],retained HUWE1^HECT inhibition
"CN1CCN(c2ncnc3c(NCc4cccc(CN)c4)ncnc23)CC1 [derivative 5, N-(3-(aminomethyl)benzyl)−8-(4-methylpiperazin-1-yl)pyrimido[5,4-d]pyrimidin-4-amine]",Inhibition by derivatives modified at the piperazine-linked benzyl moiety,HUWE1^FL [2],maintains considerable inhibition
"C#CCCCN1CCN(c2ncnc3c(NCc4cccc(CN)c4)ncnc23)CC1 [derivative 6, N-(3-(aminomethyl)benzyl)−8-(4-(pent-4-yn-1-yl)piperazin-1-yl)pyrimido[5,4-d]pyrimidin-4-amine]",Inhibition by derivatives modified at the piperazine-linked benzyl moiety,HUWE1^FL [2],preserved inhibition to a similar extent
same,"Compound ubiquitination in cells (click chemistry, cell lysates)",HEK293T WT cells,Both mono- and polyubiquitinated forms of derivatives 6 and 8 were detected
same,"Compound ubiquitination by HUWE1^FL, click-chemistry fluorescence","HUWE1^FL [4]; 20 μM compound, 10 min, ATP-dependent",fluorescent signals corresponding to the mono- and diubiquitinated forms
same,MCL1 ubiquitination (immunoblotting) with increasing compound,HUWE1^FL [4]; varying concentrations of derivative 6 and MCL1,decreased as the compound modification increased
"C#CCN1CCN(c2ncnc3c(NCc4cccc(CN)c4)ncnc23)CC1 [derivative 8, N-(3-(aminomethyl)benzyl)−8-(4-(prop-2-yn-1-yl)piperazin-1-yl)pyrimido[5,4-d]pyrimidin-4-amine]",Inhibition by derivatives modified at the piperazine-linked benzyl moiety,HUWE1^FL [2],preserved inhibition to a similar extent
same,"Compound ubiquitination in cells (click chemistry, cell lysates)",HEK293T WT cells,Both mono- and polyubiquitinated forms of derivatives 6 and 8 were detected
same,Compound ubiquitination in HUWE1 knock-out cells,HEK293T HUWE1 KO cells; HEK293T HUWE1 KO vs WT,"still detected in this context, albeit at slightly reduced levels"
same,Compound ubiquitination upon overexpression of WT HUWE1 (not catalytically inactive variant),"HEK293T HUWE1 KO cells; HEK293T HUWE1 KO, transient transfection",enhances compound ubiquitination
same,Share of total compound ubiquitination signal that endogenous HUWE1 accounts for,"HEK293T HUWE1 KO cells; HEK293T WT vs HUWE1 KO, all species (8-Ub, 8-Ub2, 8-Ubn)",≤ 25%
